# Results published in patent US11053204B2, “Pyrimidinyloxy benzene derivatives as herbicides” (FMC Corporation, priority 2015, dated 2021).
# How the values were obtained:
# Experiment in all cases: Test C postemergence, plant response rating
# Assay type in all cases: in vivo
# [1] = tested on: barnyardgrass (Echinochloa crus-galli); settings: Echinochloa crus-galli, post-emergence
# How it was run: (§1)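 Pre-emergence: seeds sown in loam soil–sand blend or silt loam and sprayed with test chemicals in a non-phytotoxic solvent mixture with surfactant. Post-emergence: plants 2 to 18 cm (1- to 4-leaf stage) in peat-based potting medium, same formulation. Greenhouse 13 to 15 d; visual rating 0 (no effect) to 100 (complete control) versus controls.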
# [2] = tested on: blackgrass (Alopecurus myosuroides); settings: Alopecurus myosuroides, post-emergence
# How it was run: as §1
# corn (Zea mays) = settings: Zea mays, post-emergence
# How it was run: as §1
# [3] = tested on: crabgrass, large (large crabgrass, Digitaria sanguinalis); settings: Digitaria sanguinalis, post-emergence
# How it was run: as §1
# [4] = tested on: galium (catchweed bedstraw, Galium aparine); settings: Galium, post-emergence
# How it was run: as §1
# kochia (Kochia scoparia) = settings: Bassia scoparia, post-emergence
# How it was run: as §1
# [5] = tested on: lambsquarters (Chenopodium album); settings: Chenopodium album, post-emergence
# How it was run: as §1
# [6] = tested on: nutsedge, yellow (yellow nutsedge, Cyperus esculentus); settings: Cyperus, post-emergence
# How it was run: as §1
# [7] = tested on: oat, wild (wild oat Avena fatua); settings: Avena fatua, post-emergence
# How it was run: as §1
# [8] = tested on: oilseed rape (Brassica napus); settings: Brassica napus, post-emergence
# How it was run: as §1
# [9] = tested on: ragweed (common ragweed, Ambrosia elatior); settings: Ambrosia artemisiifolia, post-emergence
# How it was run: as §1
# [10] = tested on: ryegrass, Italian (Italian ryegrass, Lolium multiflorum); settings: Lolium multiflorum, post-emergence
# How it was run: as §1
# soybean (Glycine max) = settings: Glycine max, post-emergence
# How it was run: as §1
# [11] = tested on: velvetleaf (Abutilon theophrasti); settings: Abutilon theophrasti, post-emergence
# How it was run: as §1
# [12] = tested on: waterhemp (common waterhemp, Amaranthus rudis); settings: for Plant response rating, Waterhemp: scale 0 to 100; for Waterhemp plant response rating: scale 0 to 100 (0 no effect, 100 complete control)
# How it was run: as §1
# [13] = tested on: wheat (winter wheat, Triticum aestivum); settings: Triticum aestivum, post-emergence
# How it was run: as §1
# [14] = 62 g ai/ha, scale 0 to 100 (0 no effect, 100 complete control)
# [15] = 125 g ai/ha, scale 0 to 100 (0 no effect, 100 complete control)
smiles,measurement,setting,value
"C=CCCOC(=O)c1c(Br)cccc1Oc1ncc(Cl)cn1 [Compound 21, 3-buten-1-yl 2-bromo-6-[(5-chloro-2-pyrimidinyl)oxy]benzoate]",pest or weed control at 16 g/ha,"[1]; 16 g ai/ha, scale 0 to 100",10%
same,pest or weed control at 31 g/ha,"[1]; 31 g ai/ha, scale 0 to 100",10%
same,pest or weed control at 62 g/ha,[1]; [14],20%
same,pest or weed control at 125 g/ha,[1]; [15],20%
same,pest or weed control at 16 g/ha,"[2]; 16 g ai/ha, scale 0 to 100",0%
same,pest or weed control at 31 g/ha,"[2]; 31 g ai/ha, scale 0 to 100",0%
same,pest or weed control at 62 g/ha,[2]; [14],5%
same,pest or weed control at 125 g/ha,[2]; [15],5%
same,"Corn plant response rating (crop injury, 0 = no effect, 100 = complete kill) at 16 g/ha","corn (Zea mays); 16 g ai/ha, scale 0 to 100",5%
same,"Corn plant response rating (crop injury, 0 = no effect, 100 = complete kill) at 31 g/ha","corn (Zea mays); 31 g ai/ha, scale 0 to 100",5%
same,plant injury at 62 g/ha,corn (Zea mays); [14],15%
same,plant injury at 125 g/ha,corn (Zea mays); [15],20%
same,pest or weed control at 16 g/ha,"[3]; 16 g ai/ha, scale 0 to 100",10%
same,pest or weed control at 31 g/ha,"[3]; 31 g ai/ha, scale 0 to 100",20%
same,pest or weed control at 62 g/ha,[3]; [14],25%
same,pest or weed control at 125 g/ha,[3]; [15],35%
same,pest or weed control at 16 g/ha,"[4]; 16 g ai/ha, scale 0 to 100",55%
same,pest or weed control at 31 g/ha,"[4]; 31 g ai/ha, scale 0 to 100",80%
same,pest or weed control at 62 g/ha,[4]; [14],75%
same,pest or weed control at 125 g/ha,[4]; [15],80%
same,pest or weed control at 16 g/ha,"kochia (Kochia scoparia); 16 g ai/ha, scale 0 to 100",60%
same,pest or weed control at 31 g/ha,"kochia (Kochia scoparia); 31 g ai/ha, scale 0 to 100",50%
same,pest or weed control at 62 g/ha,kochia (Kochia scoparia); [14],90%
same,pest or weed control at 125 g/ha,kochia (Kochia scoparia); [15],90%
same,pest or weed control at 16 g/ha,"[5]; 16 g ai/ha, scale 0 to 100",65%
same,pest or weed control at 31 g/ha,"[5]; 31 g ai/ha, scale 0 to 100",60%
same,pest or weed control at 62 g/ha,[5]; [14],65%
same,pest or weed control at 125 g/ha,[5]; [15],85%
same,pest or weed control at 16 g/ha,"[6]; 16 g ai/ha, scale 0 to 100",0%
same,pest or weed control at 31 g/ha,"[6]; 31 g ai/ha, scale 0 to 100",0%
same,pest or weed control at 62 g/ha,[6]; [14],5%
same,pest or weed control at 125 g/ha,[6]; [15],10%
same,pest or weed control at 16 g/ha,"[7]; 16 g ai/ha, scale 0 to 100",0%
same,pest or weed control at 31 g/ha,"[7]; 31 g ai/ha, scale 0 to 100",0%
same,pest or weed control at 62 g/ha,[7]; [14],5%
same,pest or weed control at 125 g/ha,[7]; [15],5%
same,plant injury at 16 g/ha,"[8]; 16 g ai/ha, scale 0 to 100",30%
same,plant injury at 31 g/ha,"[8]; 31 g ai/ha, scale 0 to 100",40%
same,plant injury at 62 g/ha,[8]; [14],50%
same,plant injury at 125 g/ha,[8]; [15],30%
same,pest or weed control at 16 g/ha,"[9]; 16 g ai/ha, scale 0 to 100",10%
same,pest or weed control at 31 g/ha,"[9]; 31 g ai/ha, scale 0 to 100",10%
same,pest or weed control at 62 g/ha,[9]; [14],45%
same,pest or weed control at 125 g/ha,[9]; [15],55%
same,pest or weed control at 16 g/ha,"[10]; 16 g ai/ha, scale 0 to 100",0%
same,pest or weed control at 31 g/ha,"[10]; 31 g ai/ha, scale 0 to 100",0%
same,pest or weed control at 62 g/ha,[10]; [14],0%
same,pest or weed control at 125 g/ha,[10]; [15],15%
same,plant injury at 16 g/ha,"soybean (Glycine max); 16 g ai/ha, scale 0 to 100",30%
same,plant injury at 31 g/ha,"soybean (Glycine max); 31 g ai/ha, scale 0 to 100",40%
same,plant injury at 62 g/ha,soybean (Glycine max); [14],60%
same,plant injury at 125 g/ha,soybean (Glycine max); [15],60%
same,pest or weed control at 16 g/ha,"[11]; 16 g ai/ha, scale 0 to 100",40%
same,pest or weed control at 31 g/ha,"[11]; 31 g ai/ha, scale 0 to 100",60%
same,pest or weed control at 62 g/ha,"[11]; 62 g ai/ha, scale 0 to 100 (0 no effect, 100 complete control), read-out: Velvetleaf plant response rating",60%
same,pest or weed control at 125 g/ha,[11]; [15],70%
same,"Plant response rating, Waterhemp",[12]; 16 g ai/ha,75
same,"Plant response rating, Waterhemp",[12]; 31 g ai/ha,85
same,Waterhemp plant response rating,[12]; 62 g ai/ha,90
same,Waterhemp plant response rating,[12]; 125 g ai/ha,85
same,plant injury at 16 g/ha,"[13]; 16 g ai/ha, scale 0 to 100",0%
same,plant injury at 31 g/ha,"[13]; 31 g ai/ha, scale 0 to 100",0%
same,plant injury at 62 g/ha,"[13]; 62 g ai/ha, scale 0 to 100 (0 no effect, 100 complete control), read-out: Wheat plant response rating",0%
same,plant injury at 125 g/ha,[13]; [15],0%
